The subject of one experiment is caspase-3. The experiment can be described thus: Caspase-3 activity (Ac-DEVD-AFC cleavage) in SH-SY5Y cells. The class given is cell-based, human. To be noted: 1 mM, 96 h. As to the method:
Measurement of the activities of the various caspases is based on the ability of the caspases to cleave specific fluorescent substrates: Ac-DEVD-AFC for caspase-3, Ac-IETD-AFC for caspase-8, or Ac-LEHD-AFC for caspase-9. SH-SY5Y neuronal cells were incubated in 48-well plates with either furosemide pyridinium (1 mM) for 96 h or with MPP+ (1 mM) for 6 h, then 24 h of incubation with no MPP+. After incubation, the cells were trypsinized, then rinsed with PBS and counted, then harvested in 100 μl of buffer containing 30 mM HEPES, 0.3 mM EDTA, 100 mM NaCl, 0.15% Triton X-100, and 10 mM DTT. The cell extract was then incubated for 1 hour at 37° C. with the specific substrate (100 μM) in a 96-well plate. Fluorescence was measured at λex400 nm and λem505 nm in a fluorescence detection plate reader (TECAN Infinite M1000) (Yue et al., supra). The results were expressed as percentages relative to the measured activity of cells cultured under the same conditions and not subjected to any treatment.

Experiment [1] relates to mitochondria isolated from rat cerebral cortex. The experiment can be described thus: Respiratory control (oxygen consumption, malate/pyruvate) of isolated cerebral cortex mitochondria. The class given is biochemical. To be noted: increasing concentration. The protocol: (§1) The animal was then decapitated in order to collect from the brain either the cortex or the striatum, which were quickly placed in a Potter Elvejhem® containing 6 ml of extraction buffer at 4° C. (250 mM sucrose, 40 mM KCl, 2 mM EGTA, lmg/ml BSA, 20 mM Tris, pH=7.2). This mixture was homogenized to break open the cells and release the mitochondria and then centrifuged at 2000 g for 8 minutes to remove the larger membrane debris and the nuclei from the pellet. The supernatant was then recovered and centrifuged at 13,000 g for 11 minutes. The supernatant was discarded while the pellet containing a mitochondria-rich fraction was resuspended in 500 μl of respiration buffer at 4° C. (300 mM D-mannitol, 10 mM KCl, 10 mM KH2PO4, 5 mM MgCl2, pH=7.2). […]
Added to the polarography chamber (Hansatech) were 30 μl of mitochondria solution (0.2 mg), 460 μL of respiration buffer, 5 μl of test compound solution (meaning MPP+ or furosemide pyridinium) (or its solubilizing solvent). […] The effect of the compound on respiratory control was evaluated (ratio of stage 3 to 4), which corresponds to the coupling of the respiratory chain, or in other words the ATP synthesis at complex V and the oxygen consumption due to complexes I to IV. The results are expressed as percentages of the value measured for mitochondria not treated with the test compound (but treated with the solubilizing solvent).

For experiment [2], the system named is respiratory chain complexes II-V of rat cerebral cortex mitochondria. The experiment can be described thus: Respiratory control after induction of complex II by succinate and inhibition of complex I by rotenone. The class given is biochemical. To be noted: 1 mM, succinate. The protocol:
as §1
Added to the polarography chamber (Hansatech) were 30 μl of mitochondria solution (0.2 mg), 460 μL of respiration buffer, 5 μl of test compound solution (meaning MPP+ or furosemide pyridinium) (or its solubilizing solvent). […] The effect of the compound on respiratory control was evaluated (ratio of stage 3 to 4), which corresponds to the coupling of the respiratory chain, or in other words the ATP synthesis at complex V and the oxygen consumption due to complexes I to IV. The results are expressed as percentages of the value measured for mitochondria not treated with the test compound (but treated with the solubilizing solvent). […]

The test system of another experiment is Sprague Dawley rats. The experiment can be described thus: EEG and sleep/arousal telemetry monitoring of exposed rats. The class given is in vivo, rat. To be noted: 20 mg/kg/day oral 7 days. The source says:
Male albino Sprague Dawley rats (adults weighing […]) were housed in a temperature-controlled room with free access to food and water.
A platform for electrophysiological and behavioral monitoring of the rats was used. For this, a subcutaneous implant (Data Science) was placed in the rats which allowed the EEG to be recorded by telemetry, leaving the animal completely free to move about. The cage was equipped with a video camera (10 frames per second) and an infrared light to allow recordation of the animal's activity. The EEG and video sequences were recorded in sequences of 10 seconds, and a set of variables was calculated for each sequence. The use of dedicated software allowed integration of these variables over the entire recording to detect changes in the animal's activity, EEG, and circadian rhythms. Each animal served as its own control because it was recorded for 5 days prior to furosemide pyridinium administration. The solution of furosemide pyridinium (20 mg) was dissolved in dimethylsulfoxide (DMSO, 200 μl) and then diluted with water (50 ml). The solution was replaced every day and administered for 7 days in the drinking water at a dose of 20 mg/kg. The rats were then sacrificed 5 weeks after the last dose. The rats were anesthetized with pentobarbital and infused intracardially with saline ([…]), then fixed with 4% paraformaldehyde. After the infusion, the brain was removed and placed in NaCl (0.9%) at 4° C. The brain was frozen in Tissue Tek immersed in a cold isopentane bath. Coronal sections of eight microns were obtained using a cryostat and were processed for immunocytochemistry (labeling the alpha-synuclein).

The subject of experiment [3] is mitochondrial respiratory chain. Kind of experiment: Respiratory chain activity of mitochondria from striata of exposed mice. To be noted: 20 mg/kg/day oral 7 days, 30 days after end of exposure. The class given is in vivo, mouse. As to the method:
Added to the polarography chamber (Hansatech) were 30 μl of mitochondria solution (0.2 mg), 460 μL of respiration buffer, 5 μl of test compound solution (meaning MPP+ or furosemide pyridinium) (or its solubilizing solvent). Then 5 μl of a 10/10 mM mixture of malate-pyruvate substrates were added, which allowed the respiratory chain to function (stage 2) starting from complex I. After about 40 seconds, 5 μl of 200 μM ADP were added, resulting in an increase in oxygen consumption as the ADP activated complex V (stage 3). Once all the ADP was consumed, the oxygen consumption returned to an initial stage (stage 4) that is equivalent to stage 2. The effect of the compound on respiratory control was evaluated (ratio of stage 3 to 4), which corresponds to the coupling of the respiratory chain, or in other words the ATP synthesis at complex V and the oxygen consumption due to complexes I to IV. The results are expressed as percentages of the value measured for mitochondria not treated with the test compound (but treated with the solubilizing solvent).
Swiss mice were divided into two groups of five animals (experimental and control). The experiments were performed independently two times. The mice of the experimental group were exposed to furosemide pyridinium for 7 days at a daily dose of 20 mg/kg. The furosemide pyridinium was administered orally in the drinking water. […]

A further experiment concerns tyrosine hydroxylase. Kind of experiment: Immunohistochemistry of tyrosine hydroxylase in exposed mice. The class given is in vivo, mouse. To be noted: 20 mg/kg/day oral 7 days, 30 days after end of exposure. As to the method:
Swiss mice were divided into two groups of five animals (experimental and control). The experiments were performed independently two times. The mice of the experimental group were exposed to furosemide pyridinium for 7 days at a daily dose of 20 mg/kg. The furosemide pyridinium was administered orally in the drinking water. The mice were sacrificed 30 days after the end of the furosemide pyridinium treatment.
For this, the mice were anesthetized with pentobarbital (50 mg/Kg), then an intracardiac infusion of NaCl (0.9%) was administered, followed by fixation by an infusion of 4% paraformaldehyde in 0.1M phosphate buffer, pH 7.2. The brain was removed, placed in NaCl (0.9%) at 4° C., and frozen in Tissue Tek immersed in a cold isopentane bath. Coronal sections of eight microns were obtained using a cryostat and were processed for immunohistochemistry (labeling the tyrosine hydroxylase and the Ser129-phosphorylated alpha-synuclein).

Regarding `NS(=O)(=O)c1cc(C(=O)[O-])c(-[n+]2cccc(O)c2)cc1Cl` [furosemide pyridinium, 4-chloro-2-(3-hydroxypyridinium-1-yl)-5-sulfamoylbenzoate], the “activity of caspase-3 compared to untreated cells” value with caspase-3 is on record as 179%. The “respiratory control of cerebral cortex mitochondria induced by malate/pyruvate” value in experiment [1] was “diminished”. The “respiratory control of cortex mitochondria after induction by complex II” value in experiment [2] is “not modified”. In the experiment with Sprague Dawley rats (five weeks after end of exposure), the “increase in number of REM sleep phases” value is on record as 2 ×. Further, the “sleep and arousal phases” value with Sprague Dawley rats (five weeks after end of treatment) was “do not indicate changes”. In addition, in the experiment on Sprague Dawley rats (five weeks after end of treatment vs before exposure), the “amplitude of the electroencephalogram” value is given as “significant decrease”. For the same compound, the “decrease in respiratory control of striatal mitochondria vs control animals” value in experiment [3] is on record as 28%. Further, the “labeling of tyrosine hydroxylase in the striata” value with tyrosine hydroxylase was “net reduction”.

Source of the values: patent US9744250B2, “Chemical model of a neurodegenerative disease, method for preparation and uses of same” (priority 2012, dated 2017).
